The values that follow come from PubChem BioAssay AID330 (DTP/NCI, 2004).

This test has as its system P388 leukemia ip, CD2F1 mice, survival T/C. Nature of the test: NCI In Vivo Anticancer Drug Screen. Data for tumor model P388 Leukemia (intraperitoneal) in CD2F1 (CDF1) mice. As to conditions: endpoint: median survival time, higher = longer survival. In a few lines:
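Mice carrying the transplanted tumor received test compound or vehicle. Survival was recorded in each group, and the value is the treated-group measurement divided by that of the vehicle-treated control group.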

The mark [1] stands for this setting: dose: 25.0 mg/kg/injection, schedule: Q01DX009 (ip), vehicle: saline with Tween-80.
Where [2] appears, read: dose: 50.0 mg/kg/injection, schedule: Q01DX009 (ip), vehicle: saline with Tween-80.
Setting [3] is: dose: 100.0 mg/kg/injection, schedule: Q01DX009 (ip), vehicle: saline with Tween-80.
Setting [4] is: dose: 200.0 mg/kg/injection, schedule: Q01DX009 (ip), vehicle: saline with Tween-80.
[5] abbreviates: dose: 50.0 mg/kg/injection, schedule: Q01DX009 (ip), vehicle: Klucel (hydroxypropylcellulose) (HPC).
Setting [6] is: dose: 100.0 mg/kg/injection, schedule: Q01DX009 (ip), vehicle: Klucel (hydroxypropylcellulose) (HPC).
Setting [7] is: dose: 200.0 mg/kg/injection, schedule: Q01DX009 (ip), vehicle: Klucel (hydroxypropylcellulose) (HPC).
The mark [8] stands for this setting: dose: 50.0 mg/kg/injection, schedule: Q01DX005 (ip), vehicle: saline with Tween-80.
Setting [9] is: dose: 100.0 mg/kg/injection, schedule: Q01DX005 (ip), vehicle: saline with Tween-80.
[10] abbreviates: dose: 200.0 mg/kg/injection, schedule: Q01DX005 (ip), vehicle: saline with Tween-80.

Where “and” joins values, the source holds several entries; their conditions need not be identical. Equal entries are not always repeated. Inconclusive results and toxic doses are left out.

`CC1(C)C=Cc2cc(O)ccc2O1`: the T/C under setting [1] is 99 % of control, the T/C under setting [2] is 90 % of control, the T/C under setting [3] was 88 % of control and the T/C under setting [4] is 86 % of control.

Regarding `c1ccc(-c2nc3ccccc3nc2-c2ccc(-c3ccc(-c4nc5ccccc5nc4-c4ccccc4)cc3)cc2)cc1`, the T/C by setting is: (dose: 6.25 mg/kg/injection, schedule: Q01DX009 (ip), vehicle: saline with Tween-80) 88 % of control and 96 % of control; (dose: 12.5 mg/kg/injection, schedule: Q01DX009 (ip), vehicle: saline with Tween-80) 101 % of control and 90 % of control; under setting [1], 99 % of control and 120 % of control and 92 % of control; under setting [2], 114 % of control and 87 % of control.

In the case of `CC(=O)OC1C/C(C)=C/CCC(C)/C=C/C2(C)CCC(C(C)(C)O)C12` (stereo not given), the T/C (dose: 8.0 mg/kg/injection, schedule: Q01DX009 (ip), vehicle: Klucel (hydroxypropylcellulose) (HPC)) is 105 % of control; the T/C (dose: 16.0 mg/kg/injection, schedule: Q01DX009 (ip), vehicle: Klucel (hydroxypropylcellulose) (HPC)) was 106 % of control; the T/C (dose: 32.0 mg/kg/injection, schedule: Q01DX009 (ip), vehicle: Klucel (hydroxypropylcellulose) (HPC)) was 106 % of control; the T/C (dose: 64.0 mg/kg/injection, schedule: Q01DX009 (ip), vehicle: Klucel (hydroxypropylcellulose) (HPC)) was 106 % of control.

On to `c1cc(C2N3CCCN2CC3)ccn1` (stereo not given), for which the T/C runs as follows: (dose: 3.12 mg/kg/injection, schedule: Q01DX009 (ip), vehicle: saline) 104 % of control; (dose: 12.5 mg/kg/injection, schedule: Q01DX009 (ip), vehicle: saline) 103 % of control; (dose: 25.0 mg/kg/injection, schedule: Q01DX009 (ip), vehicle: saline) 110 % of control.

Turning to `O=C(C(Cl)Cl)N1CCN(C(=O)C(Cl)Cl)CC1`, the T/C runs as follows: (dose: 50.0 mg/kg/injection, schedule: Q01DX005 (ip), vehicle: Klucel (hydroxypropylcellulose) (HPC)) 102 % of control; (dose: 100.0 mg/kg/injection, schedule: Q01DX005 (ip), vehicle: Klucel (hydroxypropylcellulose) (HPC)) 110 % of control; (dose: 200.0 mg/kg/injection, schedule: Q01DX005 (ip), vehicle: Klucel (hydroxypropylcellulose) (HPC)) 105 % of control.

Turning to `N#CN=C1N=S(=O)(c2ccccc2)c2ccccc21` (stereo not given), the T/C is, setting by setting: under setting [5], 103 % of control; under setting [6], 100 % of control; under setting [7], 101 % of control.

Consider `O=C1c2cc3c(cc2C(=O)c2ncccc21)CCCC3`, for which the T/C reads like this: under setting [8], 98 % of control; under setting [9], 86 % of control; under setting [10], 89 % of control.

`CCCCN(CCCC)c1cc(=O)nc2ccccn12`: the T/C by setting is: (dose: 60.0 mg/kg/injection, schedule: Q01DX005 (ip), vehicle: saline) 101 % of control; (dose: 120.0 mg/kg/injection, schedule: Q01DX005 (ip), vehicle: saline) 101 % of control; (dose: 240.0 mg/kg/injection, schedule: Q01DX005 (ip), vehicle: saline) 100 % of control.

On to `COC(=O)CCCC1=NCCS1`, for which the T/C under setting [8] was 103 % of control, the T/C under setting [9] is 103 % of control and the T/C under setting [10] is 112 % of control.

As to `Nc1ncnc2c1ncn2C1OC(CO)C2OC(=S)OC21` (stereo not given), the T/C under setting [1] is 96 % of control, the T/C under setting [2] was 101 % of control, the T/C under setting [3] is 100 % of control and the T/C under setting [4] is 100 % of control.

`CC1(C)N=C(N)N=C(N)N1c1cc(C(F)(F)F)cc(C(F)(F)F)c1`: the T/C runs as follows: (dose: 7.5 mg/kg/injection, schedule: Q01DX005 (ip), vehicle: Klucel (hydroxypropylcellulose) (HPC)) 99 % of control; (dose: 15.0 mg/kg/injection, schedule: Q01DX005 (ip), vehicle: Klucel (hydroxypropylcellulose) (HPC)) 94 % of control; (dose: 30.0 mg/kg/injection, schedule: Q01DX005 (ip), vehicle: Klucel (hydroxypropylcellulose) (HPC)) 105 % of control.

As to `CCOC(=O)/C=C(\C)NCCSSCCN/C(C)=C/C(=O)OCC`, the T/C under setting [5] is 100 % of control, the T/C under setting [6] was 97 % of control and the T/C under setting [7] is 90 % of control.

For the molecule `Cc1ccc(NC(=O)N(CCCl)N=O)cc1NC(=O)N(CCCl)N=O`, the T/C by setting is: (dose: 0.1 mg/kg/injection, schedule: Q01DX009 (ip), vehicle: other) 120 % of control; (dose: 0.1 mg/kg/injection, schedule: Q01DX009 (ip), vehicle: saline + alcohol) 116 % of control; (dose: 0.25 mg/kg/injection, schedule: Q04DX003 (ip), vehicle: other) 113 % of control; (dose: 0.5 mg/kg/injection, schedule: Q04DX003 (ip), vehicle: other) 118 % of control; (dose: 0.75 mg/kg/injection, schedule: Q01DX009 (ip), vehicle: other) 161 % of control; (dose: 1.0 mg/kg/injection, schedule: Q01DX009 (ip), vehicle: other) 159 % of control. In addition, the T/C was 113 % of control (dose: 1.0 mg/kg/injection, schedule: Q04DX003 (ip), vehicle: other); 154 % of control (dose: 1.32 mg/kg/injection, schedule: Q01DX009 (ip), vehicle: saline with Tween-80); 175 % of control (dose: 1.5 mg/kg/injection, schedule: Q01DX009 (ip), vehicle: other); 181 % of control (dose: 2.0 mg/kg/injection, schedule: Q01DX009 (ip), vehicle: saline with Tween-80); 154 % of control (dose: 2.0 mg/kg/injection, schedule: Q04DX003 (ip), vehicle: other); 221 % of control (dose: 3.0 mg/kg/injection, schedule: Q01DX009 (ip), vehicle: other). In addition, the T/C is 155 % of control and 209 % of control (dose: 3.0 mg/kg/injection, schedule: Q01DX009 (ip), vehicle: saline with Tween-80); 177 % of control (dose: 3.13 mg/kg/injection, schedule: Q01DX009 (ip), vehicle: other); 245 % of control (dose: 4.5 mg/kg/injection, schedule: Q01DX009 (ip), vehicle: saline with Tween-80); 209 % of control (dose: 6.25 mg/kg/injection, schedule: Q01DX009 (ip), vehicle: other); 222 % of control (dose: 12.5 mg/kg/injection, schedule: Q01DX009 (ip), vehicle: other).

Consider `[CH3][Pb]([CH3])([CH3])[Cl]`, for which the T/C was 90 % of control and 92 % of control (dose: 0.75 mg/kg/injection, schedule: Q01DX009 (ip), vehicle: saline); 90 % of control and 93 % of control and 97 % of control (dose: 1.5 mg/kg/injection, schedule: Q01DX009 (ip), vehicle: saline); 94 % of control (2×) and 97 % of control (dose: 3.0 mg/kg/injection, schedule: Q01DX009 (ip), vehicle: saline); 95 % of control (dose: 6.0 mg/kg/injection, schedule: Q01DX009 (ip), vehicle: saline).

Consider `Cc1c(F)cccc1[N+](=O)[O-]`, for which the T/C under setting [2] is 104 % of control, the T/C under setting [3] was 114 % of control and the T/C under setting [4] was 123 % of control.

`C=CC[S+]1CCSC1C(=O)OCC` (stereo not given): the T/C is 95 % of control (dose: 100.0 mg/kg/injection, schedule: Q01DX001 (ip), vehicle: saline); 112 % of control (dose: 200.0 mg/kg/injection, schedule: Q01DX001 (ip), vehicle: saline); 91 % of control (dose: 400.0 mg/kg/injection, schedule: Q01DX001 (ip), vehicle: saline).

As for `Cn1nnc(-c2ccccc2)n1`, the T/C is, setting by setting: (dose: 100.0 mg/kg/injection, schedule: Q04DX002 (ip), vehicle: saline with Tween-80) 107 % of control; (dose: 200.0 mg/kg/injection, schedule: Q04DX002 (ip), vehicle: saline with Tween-80) 102 % of control; (dose: 400.0 mg/kg/injection, schedule: Q04DX002 (ip), vehicle: saline with Tween-80) 112 % of control.

As for `CNC(=O)OCc1c(COC(=O)NC)c(-c2ccccc2)n(-c2ccccc2)c1C`, the T/C is, setting by setting: (dose: 12.5 mg/kg/injection, schedule: Q01DX005 (ip), vehicle: saline with Tween-80) 150 % of control; (dose: 25.0 mg/kg/injection, schedule: Q01DX005 (ip), vehicle: saline with Tween-80) 169 % of control; under setting [8], 157 % of control and 176 % of control; under setting [9], 118 % of control.

On to `O=[N+]([O-])/C=C/c1c(Cl)cccc1Cl`, for which the T/C runs as follows: (dose: 12.5 mg/kg/injection, schedule: Q04DX003 (ip), vehicle: saline with Tween-80) 99 % of control; (dose: 25.0 mg/kg/injection, schedule: Q04DX003 (ip), vehicle: saline with Tween-80) 100 % of control; (dose: 50.0 mg/kg/injection, schedule: Q04DX003 (ip), vehicle: saline with Tween-80) 100 % of control.

Regarding `O=C1C(Sc2ccccc2)C(c2ccccc2)C1Sc1ccccc1` (stereo not given), the T/C under setting [8] was 96 % of control, the T/C under setting [9] is 105 % of control and the T/C under setting [10] was 99 % of control.
